PMC13195669, “GPR3 Ligands Discovered through Combined Virtual and Conformational Biosensor-Based Screening” (Journal of the American Chemical Society, 2026)

Target: T1, GPR3 (Homo sapiens, UniProt P46089)
T1 construct: host or cells: HEK293A, transient
Assay: cAMP GloSensor 22F, GPR3-transfected HEK293A cells
Type: cell-based
Details: read-out: EC50 of cAMP decrease in GPR3-expressing cells
Source text: Next, we used the classical cAMP GloSensor technology to assess the target selectivity profile of 33. […] In addition, we tested the effects of 33 on cAMP changes mediated by agonist-stimulated GPCRs phylogenetically close to GPR3 and coupling to Gs or Gi/o proteins. […]
conditioning and no constraints were applied. The poses were visually inspected and the most favorable one that coincides with the co-solved ligand according to the available structures was chosen.
Plasmids and molecular cloning
The H187-EPAC-FRET sensor7 was kindly provided by K. Jalink (The Netherlands Cancer Institute, Amsterdam, The Nether-lands). The BRET-based cAMP sensor CAMYEL8 was kindly provided by Laura Humphrys (University of Regensburg, Regens-burg, Germany). Plasmids encoding the conformational biosensors α2AAR- and β2AR-HaloTag/Nluc9 and the Gs heterotrimer dissociation sensor10 were previously described. The expression plasmid encoding N-terminally HA-tagged GPR3 (cat. no.
#GPR003TN00) on a pcDNA3.1+ vector was obtained from the cDNA resource center (cdna.org). The Nluc and HaloTag in-serts were amplified with overhanging restriction sites from β2AAR- HaloTag/Nluc and ligated to the full-length C-terminus or inserted into icl3 of GPR3, respectively, to obtain the conformational biosensor GPR3-HaloTag/Nluc. […]

T1 sequence (P46089 whole entry): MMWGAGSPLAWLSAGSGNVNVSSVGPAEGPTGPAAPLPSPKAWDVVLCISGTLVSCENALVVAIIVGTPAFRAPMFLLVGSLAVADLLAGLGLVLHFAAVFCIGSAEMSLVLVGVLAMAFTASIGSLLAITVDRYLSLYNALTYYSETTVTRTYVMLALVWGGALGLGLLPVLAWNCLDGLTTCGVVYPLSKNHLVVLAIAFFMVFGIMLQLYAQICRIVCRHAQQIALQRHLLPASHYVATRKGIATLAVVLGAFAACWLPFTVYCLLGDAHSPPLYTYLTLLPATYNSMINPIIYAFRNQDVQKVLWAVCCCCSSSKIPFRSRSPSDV

N=c1n(Cc2ccccc2)c2ccccc2n1CC1CC1 [compound 33]
EC50: 2000 nM
